Measurements reported in patent publication US20130065818A1, “Arylamide Compounds And Compositions And Uses Thereof” (POLYMEDIX, priority 2006, published 2013).
Values after ≈ are worked out from the molar mass of the structure shown. Values joined by “and” are separate entries in the source; they are usually repeats but may differ in a detail not shown here. Identical values can stand only once. “Also recorded” adds a separate entry of the source.

Experiments:
P. aeruginosa ATCC 10145 = assay: MIC, laboratory strains (Example 8); assay type: cell-based
[1] = Draize ocular toxicity scoring, NZW rabbit ocular toxicity model; assay type: in vivo; set-up: key to MMTS / Score (Draize total): Draize total score of cornea, iris and conjunctivae; maximum 110; III. B. Chemosis / I. A. Cornea opacity / I. B. Area of cornea involved / II. A. Iris / III. A. Conjunctivae redness / III. C. Discharge: scale not given here
Protocol: The ocular toxicity of several concentrations of Oligomer 2, using the Draize ocular toxicity scoring system, in the NZW rabbit ocular toxicity model was carried out.
(§1) Rabbits were treated in both eyes with (37 μl) topical drops every 30 minutes for 3 hours (7 total doses). One rabbit was treated with Tris-Buffered Saline and served as a negative control. Rabbits were evaluated in a masked fashion for ocular toxicity by an ophthalmologist with specialty training in corneal and external disease. Ocular toxicity was evaluated using the Draize scoring system after treatment on Day 0 and on Day 3 post treatment for any delayed toxicity. (Draize et al., J. Pharmacol. Exp. Ther., 1944, 82, 377-390).
A brief summary of the Draize scoring system for ocular lesions is provided below
Total Maximum Score: 110 represents the sum of all scores obtained for the cornea, iris and conjunctivae.
The ocular toxicity of several formulations of Oligomer 4 with and without farnesol, using the Draize ocular toxicity scoring system, in the NZW rabbit ocular toxicity model was carried out.
as §1, with “external disease 30 minutes after the final dose.” for “external disease.”, “system (see above)” for “system”, “Day 2” for “Day 3”, “toxicity.” for “toxicity. (Draize et al., J. Pharmacol. Exp. Ther., 1944, 82, 377-390).”

[2] = tested on: fluoroquinolone-resistant, methicillin-resistant Staphylococcus aureus (K950); assay: NZW rabbit keratitis model, corneal colony counts; assay type: in vivo
Outline: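 NZW rabbit corneas, with or without intact epithelia, infected with fluoroquinolone-resistant MRSA; right eyes left untreated. Topical treatments included 1%, 0.5% or 0.25% Oligomer 2 (0.25% ± 0.005% benzalkonium chloride), 0.25% Oligomer 4 ± 200 μM Farnesol, 200 μM Farnesol alone, and 5% vancomycin; read-out corneal colony counts.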

[3] = 0.25% Oligomer 4 in TBS, Day 0, per eye
[4] = 0.25% Oligomer 4 in TBS, Day 2, per eye
[5] = 0.25% in Tris Buffered Saline (TBS), Day 0
[6] = 0.25% in Tris Buffered Saline (TBS), Day 2
[7] = 0.5% Oligomer 4 in TBS, Day 0, per eye
[8] = 0.5% Oligomer 4 in TBS, Day 2, per eye
[9] = 0.5% in Tris Buffered Saline (TBS), Day 0
[10] = 0.5% in Tris Buffered Saline (TBS), Day 2

N=C(N)NCCCCC(=O)Nc1cc(C(F)(F)F)cc(NC(=O)c2cc(C(=O)Nc3cc(C(F)(F)F)cc(NC(=O)CCCCNC(=N)N)c3O[C@@H]3CCNC3)ncn2)c1O[C@@H]1CCNC1 [Oligomer 4]
MIC (P. aeruginosa ATCC 10145): 12.5 µg/mL (≈ 13.3 µM)
Classification of eye irritation ([1]; 0.25% Oligomer 4 in TBS, Day 0): Practically Non-Irritating
MMTS ([1]; 0.25% Oligomer 4 in TBS, Day 0): 1.5
MMTS classification symbol ([1]; 0.25% Oligomer 4 in TBS, Day 0): PN (0.6-2.5 Practically Non-Irritating)
I. A. Cornea opacity [1, 3]: 0
I. B. Area of cornea involved [1, 3]: 0
I. Tot (cornea, A × B × 5) [1, 3]: 0
II. A. Iris [1, 3]: 0
II. Tot (iris, A × 5) [1, 3]: 0
III. A. Conjunctivae redness [1, 3]: 0
III. B. Chemosis [1, 3]: 0
Classification of eye irritation ([1]; 0.25% Oligomer 4 in TBS, Day 2): Non-Irritating
MMTS ([1]; 0.25% Oligomer 4 in TBS, Day 2): 0.5
MMTS classification symbol ([1]; 0.25% Oligomer 4 in TBS, Day 2): N (0.0-0.5 Non-Irritating)
I. A. Cornea opacity [1, 4]: 0
I. B. Area of cornea involved [1, 4]: 0
I. Tot (cornea, A × B × 5) [1, 4]: 0
II. A. Iris [1, 4]: 0
II. Tot (iris, A × 5) [1, 4]: 0
III. A. Conjunctivae redness [1, 4]: 0
III. B. Chemosis [1, 4]: 0
MMTS [1, 5]: 1.5
MMTS classification [1, 5]: PN (0.6-2.5 Practically Non-Irritating)
MMTS [1, 6]: 0.5
MMTS classification [1, 6]: N (0.0-0.5 Non-Irritating)
Classification of eye irritation ([1]; 0.5% Oligomer 4 in TBS, Day 0): Mildly Irritating
MMTS ([1]; 0.5% Oligomer 4 in TBS, Day 0): 6.5
MMTS classification symbol ([1]; 0.5% Oligomer 4 in TBS, Day 0): M1 (2.6-15.0 Minimally Irritating)
I. A. Cornea opacity [1, 7]: 0
I. B. Area of cornea involved [1, 7]: 0
I. Tot (cornea, A × B × 5) [1, 7]: 0
II. A. Iris [1, 7]: 0
II. Tot (iris, A × 5) [1, 7]: 0
III. C. Discharge [1, 7]: 2 and 1
MMTS ([1]; 0.5% Oligomer 4 in TBS, Day 2): 1.0
MMTS classification symbol ([1]; 0.5% Oligomer 4 in TBS, Day 2): N (0.0-0.5 Non-Irritating)
I. A. Cornea opacity [1, 8]: 0
I. B. Area of cornea involved [1, 8]: 0
I. Tot (cornea, A × B × 5) [1, 8]: 0
II. A. Iris [1, 8]: 0
II. Tot (iris, A × 5) [1, 8]: 0
III. A. Conjunctivae redness [1, 8]: 0
III. B. Chemosis [1, 8]: 0
MMTS [1, 9]: 6.5
MMTS classification [1, 9]: M1 (2.6-15.0 Minimally Irritating)
MMTS [1, 10]: 1.0
MMTS classification [1, 10]: N (0.0-0.5 Non-Irritating)
Dose dependence of ocular toxicity ([1]; Example 7, 7 topical instillations, every 30 minutes for 3 hours): dose dependent ocular toxicity
Effect of addition of 100 μM Farnesol in 1% Propylene Glycol on ocular toxicity ([1]; rabbit, in vivo): increased the toxicity
Effect of addition of Farnesol on penetration and antibacterial efficacy of Oligomer 4 ([2]; Ker-4): did nothing to promote penetration; also recorded: a trend toward antagonism
Reduction of colony counts compared with the Onset of Therapy Control ([2]; Ker-4, corneal epithelium removed): effective
Effect of addition of Farnesol on penetration of 0.25% Oligomer 4 through the intact corneal epithelium ([2]; in vivo): did not appear aid in the penetration
